# Source: US20100256357A1, “HETEROCYCLES USEFUL AS INHIBITORS OF CARBONIC ANHYDRASE” (Agouron Pharmaceuticals, Inc., priority 2006, published 2010)
# Like-named read-outs stand apart in the source and are kept apart here.
# Experiments:
# human CA-XII = molecular target: T1, human CA-XII (Homo sapiens, UniProt O43570); test: Carbonic Anhydrase-XII (CA-XII) Fluorimetric Assay-IC50 Determination; format: biochemical; settings: for inhibition at 1 µM: read-out: % inh CAXII @ 1 uM; for IC50: read-out: CAXII IC 50
# T1 construct: made in house; host or cells: Escherichia coli AD494 (DE3)
# Procedure: Carbonic Anhydrase-XII (CA-XII) Fluorimetric Assay-IC50 Determination
# The cells were grown in LB (Biomyx) supplemented with 800 uM ZnCl2 at 37° C. until an O.D.600 of 0.7, at which point the cells were induced with 100 uM IPTG for 20 hours at 20° C. The frozen pellet was resuspended in 50 mM MES pH 6.0, 100 mM NaCl, 800 uM ZnCl2 and EDTA-Free protease inhibitors (Roche). The cells were lysed with a microfluidizer and the lysate was spun at 40,000 rpm for 45 minutes at 4° C. The soluble fraction was then put over a 100 ml SP-Sepharose High Performance (GE Healthcare) column and eluted with a 50 mM MES pH 6.0, 750 mM NaCl gradient.
# Compounds were diluted in DMSO at the concentration of 1 mM, then 50 μM and transferred to a 96-well plate for further dilutions (1:3 dilution, 11 points) in duplicate. Final compound highest concentration in CA-XII Fluorimetric assay is 1 μM. Assays were conducted in a final volume of 100 μL in 50 mM Tris/HCl (pH 7.6), 100 mM Na2SO4 and 0.005% Tween-20 in a 96-well black assay plate. Fluorescein diacetate was used as the substrate. Enzyme inhibition was determined by pipetting 8 μL of human CA-XII (50 nM) into assay plate contained 2 μL of compound and 2 μL of substrate (10 μM) in 88 μL of assay buffer.
# human CA-II [1] = molecular target: T2, human CA-II (Homo sapiens, UniProt P00918); test: Carbonic Anhydrase-II (CA-II) Fluorimetric Assay-IC50 Determination; format: biochemical; settings: read-out: CAII % Inh @ Min dose; for inhibition at 0.1 µM: CA II Min dose 100 nM; for inhibition at 0.01 µM: CA II Min dose 10 nM; for inhibition at 0.0025 µM: Min dose 2.5 nM
# T2 construct: purchased Sigma-Aldrich C6165
# Procedure, shortened: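 Enzyme activity is read fluorimetrically at 25° C (ex 488 nm / em 538 nm) as the rate at which human CA-II hydrolyses fluorescein diacetate. The buffer is Tris/HCl (50 mM, pH 7.6) with 100 mM Na2SO4 and 0.005% Tween-20. Inhibitors run in duplicate over 11 threefold dilutions, […]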
# human CA-II [2] = molecular target: T2, human CA-II; test: Carbonic Anhydrase-II (CA-II) Fluorescence Polarization Tight Binding Assay-Kd Determination; settings: for Kd: read-out: CA-II Kd
# Procedure: Assays were conducted in a final volume of 100 μL in 50 mM Tris/HCl (pH 7.6), 100 mM Na2SO4 and 0.005% Tween-20 in a 96-well black assay plate. […] The assay plate was
# The Kd binding was calculated using GraphPad Prism and Morrison tight binding ligand equation.
# human CA-IV = molecular target: T3, human CA-IV (Homo sapiens, UniProt P22748); test: Carbonic Anhydrase-IV (CA-IV) Fluorescence Polarization Assay-IC50 Determination; format: binding; settings: for inhibition at 0.2 µM: read-out: CA-IV: % Inh @ Min dose
# T3 construct: made in house; host or cells: Escherichia coli BL21(DE3)
# Procedure: Carbonic Anhydrase-IV (CA-IV) Fluorescence Polarization Assay-IC50 Determination
# These cells were grown in Luria broth (LB) media (Biomyx) supplemented with 800 uM ZnCl2 at 37° C. until an O.D.600 of 0.7, at which point the cells were induced with 100 uM isopropyl-beta-D-thiogalactopyranoside (IPTG) for 20 hours at 20° C. The frozen pellet was resuspended in 50mM 2-morpholinoethanesulfonic acid (MES) at pH 6.0, 100 mM NaCl, 800 uM ZnCl2 and EDTA-Free protease inhibitors (Roche). The cells were lysed with a microfluidizer, the lysate was spun at 40,000 rpm for 45 minutes at 4° C., and the soluble fraction was dialyzed overnight at 4° C. in 50 mM MES pH 6.0, and 100 mM NaCl. The soluble fraction was then put over a 100 ml SP-Sepharose High Performance (GE Healthcare) column and eluted with a 50 mM MES pH 6.0, 750 mM NaCl gradient. The peak fractions were then concentrated, via an Amicon Ultra-4 10,000 MWCO (Millipore) spin column to 2.0 mL and loaded onto a Sephacryl S-100 High Resolution (GE Healthcare) column in 25 mM tris(hydroxymethyl)aminomethane hydrochloride (Tris-HCl) pH 7.0, and 100 mM NaCl. The peak fractions were then concentrated, via an Amicon Ultra-4 10,000 MWCO (Millipore) spin column, to 7.0 mg/mL and left exposed at room temperature overnight. […] T.; et al. Carbonic Anhydrase Inhibitors. Med. Res. Rev. […]
# Assays were conducted in a final volume of 100 μL in 50 mM Tris/HCl (pH 7.6), 100 mM Na2SO4 and 0.005% Tween-20 in a 96-well black assay plate.
# T3 sequence (P22748 19-284 limits assumed): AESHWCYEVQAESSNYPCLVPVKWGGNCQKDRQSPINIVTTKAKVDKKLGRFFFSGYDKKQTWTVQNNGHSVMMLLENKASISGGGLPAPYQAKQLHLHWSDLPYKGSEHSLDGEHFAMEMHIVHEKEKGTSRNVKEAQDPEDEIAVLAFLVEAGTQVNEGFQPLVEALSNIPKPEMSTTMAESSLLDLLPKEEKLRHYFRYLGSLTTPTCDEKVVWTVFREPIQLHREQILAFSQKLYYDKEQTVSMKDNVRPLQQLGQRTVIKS
# T1 sequence (O43570 30-289 limits assumed): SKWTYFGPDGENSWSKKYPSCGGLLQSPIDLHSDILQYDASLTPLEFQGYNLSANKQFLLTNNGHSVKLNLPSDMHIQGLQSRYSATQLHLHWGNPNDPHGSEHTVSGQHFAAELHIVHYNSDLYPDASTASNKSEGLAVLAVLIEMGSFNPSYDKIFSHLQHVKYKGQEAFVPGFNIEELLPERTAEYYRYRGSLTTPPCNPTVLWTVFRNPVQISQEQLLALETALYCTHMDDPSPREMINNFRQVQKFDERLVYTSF
SMILES,inhibition at 0.1 µM (human CA-II [1]) [%],Kd (human CA-II [2]) [nM],inhibition at 0.2 µM (human CA-IV; CA-IV Min dose 200 nM) [%],IC50 (human CA-IV; read-out: CA-IV IC50) [nM],other results
"CCOC(=O)c1nn(-c2ccc(S(N)(=O)=O)cc2)c2c1CNCC2 [EE-1g, ethyl 1-[4-(aminosulfonyl)phenyl]-4,5,6,7-tetrahydro-1H-pyrazolo[4,3-c]pyridine-3-carboxylate]",–,–,–,–,inhibition at 1 µM (human CA-XII): 31%; IC50 (human CA-XII): > 1000 nM
"CCCCCN(C)C(=O)c1nc(Cc2ccccc2)n(-c2ccc(S(N)(=O)=O)cc2)n1 [Example R-1, 1-[4-(aminosulfonyl)phenyl]-5-benzyl-N-methyl-N-pentyl-1H-124-triazole-3-carboxamide]",100,0.56,68.6,86,–
"NS(=O)(=O)c1ccc(-n2nc(C(=O)N(CCO)Cc3ccccc3)nc2Cc2ccccc2)cc1 [Example R-2, 1-[4-(aminosulfonyl)phenyl]-N5-dibenzyl-N-(2-hydroxyethyl)-1H-124-triazole-3-carboxamide]",–,0.621,57.7,87,inhibition at 0.01 µM (human CA-II [1]): 87%
"CCCCN(C)C(=O)c1nc(Cc2ccccc2)n(-c2ccc(S(N)(=O)=O)cc2)n1 [Example R-3, 1-[4-(aminosulfonyl)phenyl]-5-benzyl-N-butyl-N-methyl-1H-124-triazole-3-carboxamide]",101,0.451,66.4,88,–
"CC1(C)COCN1C(=O)c1nc(Cc2ccccc2)n(-c2ccc(S(N)(=O)=O)cc2)n1 [Example R-6, 4-(5-benzyl-3-[(44-dimethyl-13-oxazolidin-3-yl)carbonyl]-1H-124-triazol-1-yl)benzenesulfonamide]",–,0.325,58.2,180,inhibition at 0.01 µM (human CA-II [1]): 97%
"NS(=O)(=O)c1ccc(-n2nc(C(=O)NCc3n[nH]c4c3CCC4)nc2Cc2ccccc2)cc1 [Example R-11, 1-[4-(aminosulfonyl)phenyl]-5-benzyl-N-(1456-tetrahydrocyclopenta[c]pyrazol-3-ylmethyl)-1H-124-triazole-3-carboxamide]",99,0.091,64.7,202,–
"N#CCCN(C(=O)c1nc(Cc2ccccc2)n(-c2ccc(S(N)(=O)=O)cc2)n1)C1CC1 [Example R-13, 1-[4-(aminosulfonyl)phenyl]-5-benzyl-N-(2-cyanoethyl)-N-cyclopropyl-1H-124-triazole-3-carboxamide]",100,0.644,63.6,208,–
"NS(=O)(=O)c1ccc(-n2nc(C(=O)NCC3CCCCC3)nc2Cc2ccccc2)cc1 [Example R-17, 1-[4-(aminosulfonyl)phenyl]-5-benzyl-N-(cyclohexylmethyl)-1H-124-triazole-3-carboxamide]",101,0.067,56.9,242,–
"CN(CC1CC1)C(=O)c1nc(Cc2ccccc2)n(-c2ccc(S(N)(=O)=O)cc2)n1 [Example R-20, 1-[4-(aminosulfonyl)phenyl]-5-benzyl-N-(cyclopropylmethyl)-N-methyl-1H-124-triazole-3-carboxamide]",100,0.805,65.2,355,–
"COc1cccc(CNC(=O)c2nc(Cc3ccccc3)n(-c3ccc(S(N)(=O)=O)cc3)n2)c1 [Example R-22, 1-[4-(aminosulfonyl)phenyl]-5-benzyl-N-(3-methoxybenzyl)-1H-124-triazole-3-carboxamide]",100,0.091,53.6,361,–
"CN(C)[C@H]1CCN(C(=O)c2nc(Cc3ccccc3)n(-c3ccc(S(N)(=O)=O)cc3)n2)C1 [Example R-23, 4-(5-benzyl-3-{[(3S)-3-(dimethylamino)pyrrolidin-1-yl]carbonyl}-1H-124-triazol-1-yl)benzenesulfonamide]",99,0.294,40.3,376,–
"COC[C@H](C)NCc1nc(Cc2ccccc2)n(-c2ccc(S(N)(=O)=O)cc2F)n1 [Example T-80, 4-[5-benzyl-3-({[(1S)-2-methoxy-1-methylethyl]amino}methyl)-1H-124-triazol-1-yl]-3-fluorobenzenesulfonamide]",–,–,–,–,inhibition at 0.0025 µM (human CA-II [2]; inhibitor concentration 2.5 nM): 73%
"CCOC(=O)c1cc(C)n(-c2ccc(S(N)(=O)=O)cc2)n1 [GG-1, Ethyl 1-[4-(Aminosulfonyl)phenyl]-5-methyl-1H-pyrazole-3-carboxylate]",–,–,–,–,IC50 (human CA-IV; read-out: IC50_CAIV): ≥ 5000 nM; inhibition at 1 µM (human CA-XII): 51%; IC50 (human CA-XII): 896 nM
"NS(=O)(=O)c1ccc(-n2nc(CN3CCOCC3)c3c2CCCC3)cc1 [II-1b, 4-[3-(morpholin-4-ylmethyl)-4,5,6,7-tetrahydro-1H-indazol-1-yl]benzenesulfonamide]",–,–,–,–,IC50 (human CA-IV; read-out: IC50_CAIV): ≥ 5000 nM; inhibition at 1 µM (human CA-XII): 89%; IC50 (human CA-XII): 119 nM
"CCOC(=O)c1nc(Cc2ccccc2)n(-c2ccc(S(N)(=O)=O)cc2)n1 [a-4, Ethyl 1-[4-(Aminosulfonyl)phenyl]-5-benzyl-1H-1,2,4-triazole-3-carboxylate]",–,–,–,–,inhibition at 1 µM (human CA-XII): 95%; IC50 (human CA-XII): 73.8 nM
"NS(=O)(=O)c1ccc(-n2nc(C(=O)O)nc2Cc2ccccc2)cc1 [a-5, 1-[4-(Aminosulfonyl)phenyl]-5-benzyl-1H-1,2,4-triazole-3-carboxylic acid]",–,–,–,–,inhibition at 1 µM (human CA-XII): 99%; IC50 (human CA-XII): 25.8 nM

# Now from value to compound, other results behind:
inhibition at 0.1 µM (human CA-II [1]) [%],Kd (human CA-II [2]) [nM],inhibition at 0.2 µM (human CA-IV; CA-IV Min dose 200 nM) [%],IC50 (human CA-IV; read-out: CA-IV IC50) [nM],SMILES,other results
–,0.608,–,130,"Cc1ccc(C)c(Cn2cc(C(F)(F)F)nc2-c2ccc(S(N)(=O)=O)cc2)c1 [JJJ-1, 4-[1-(25-dimethylbenzyl)-4-(trifluoromethyl)-1H-imidazol-2-yl]benzenesulfonamide]",inhibition at 0.0025 µM (human CA-II [1]): 46%; inhibition at 0.2 µM (human CA-IV; Min dose 200 nM): 56%
–,0.552,–,309,"Cc1cc(Cn2cc(C(F)(F)F)nc2-c2ccc(S(N)(=O)=O)cc2)ccc1F [JJJ-2, 4-[1-(4-fluoro-3-methylbenzyl)-4-(trifluoromethyl)-1H-imidazol-2-yl]benzenesulfonamide]",inhibition at 0.0025 µM (human CA-II [1]): 37%; inhibition at 0.2 µM (human CA-IV; Min dose 200 nM): 45%
–,0.369,–,346,"Cc1ccccc1Cn1cc(C(F)(F)F)nc1-c1ccc(S(N)(=O)=O)cc1 [JJJ-3, 4-[1-(2-methylbenzyl)-4-(trifluoromethyl)-1H-imidazol-2-yl]benzenesulfonamide]",inhibition at 0.0025 µM (human CA-II [1]): 47%; inhibition at 0.2 µM (human CA-IV; Min dose 200 nM): 36%
–,1.39,–,440,"NS(=O)(=O)c1ccc(-c2nc(C(F)(F)F)cn2Cc2cccc(OC(F)F)c2)cc1 [JJJ-4, 4-{1-[3-(difluoromethoxy)benzyl]-4-(trifluoromethyl)-1H-imidazol-2-yl]benzenesulfonamide]",inhibition at 0.0025 µM (human CA-II [1]): 39%; inhibition at 0.2 µM (human CA-IV; Min dose 200 nM): 29%
